Results on ten molecules are retold here after ChEMBL document CHEMBL1201862, “PubChem BioAssay data set” (2004).

Among the test systems are OVCAR-5; KM12; SNB-19; OVCAR-3; U-251; SF-539; K562; NCI/ADR-RES; A549; MCF7; M14; SK-OV-3; 786-0; NCI-H226; MOLT-4; RPMI-8226; EKVX; SK-MEL-5; RXF 393; HOP-62.
Assay in all cases: inhibition of tumour cell growth, NCI panel, 48 h

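Exposure lasted 48 hours, with cells grown in 96-well plates and compounds tested at five concentrations. GI50 marks 50% less growth.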 The source made the active and inactive calls. Rule as the data show it: active = GI50 up to about 1.1 µM and inactive = higher.

In the case of `O=C1/C(=C/c2ccc(O)c(O)c2)CCC/C1=C\c1ccc(O)c(O)c1`, the GI50 in the test with OVCAR-5 is 14 µM (inactive); in the test with KM12 it was 3.95 µM (inactive); in the test with SNB-19 it was 7.08 µM (inactive); in the test on OVCAR-3 it was 3.06 µM (inactive); in the test on U-251 it was 2.92 µM (inactive); in the test on SF-539, 2.41 µM (inactive). The GI50 with K562 was 3.71 µM (inactive); in the test on NCI/ADR-RES, 4.13 µM (inactive); in the test on A549, 7.41 µM (inactive); with MCF7, 5.16 µM (inactive); in the test with M14 it was 4.8 µM (inactive); in the test on SK-OV-3, 7.96 µM (inactive). Moreover, the GI50 with 786-0 was 3.31 µM (inactive); in the test with NCI-H226, 5.6 µM (inactive); in the test with MOLT-4, 2.42 µM (inactive); in the test with RPMI-8226 it was 2.48 µM (inactive); with EKVX, 14.3 µM (inactive); in the test with SK-MEL-5, 1.67 µM (inactive). In addition, the GI50 in the test with RXF 393 was 2.62 µM (inactive); in the test on HOP-62 it was 4.13 µM (inactive).

Take `CC(=O)NC(C)(C)C1CCC(C)CC1` (stereo not given): the GI50 with OVCAR-5, in the test on KM12, with SNB-19, in the test on OVCAR-3, in the test on U-251 and with SF-539 was > 100 µM (inactive) in each case. The GI50 with K562, in the test with NCI/ADR-RES, with A549, in the test with MCF7, in the test on M14 and in the test on SK-OV-3 was > 100 µM (inactive) throughout. Besides, the GI50 in the test with 786-0, in the test on NCI-H226, in the test with MOLT-4, with RPMI-8226, in the test with EKVX and in the test on SK-MEL-5 was > 100 µM (inactive) throughout. For the same molecule, the GI50 in the test on RXF 393 and with HOP-62 was > 100 µM (inactive) in each case.

Regarding `C=CCn1c(=O)c(C)cn(/C(=C/C(=O)OCC)C(=O)OCC)c1=O`, the GI50 in the test with OVCAR-5 was 16.4 µM (inactive); in the test on KM12, 17.2 µM (inactive); in the test on SNB-19, 46.9 µM (inactive); with OVCAR-3, 9.66 µM (inactive); in the test on U-251 it was 14.4 µM (inactive); in the test on SF-539, 23.2 µM (inactive). Also, the GI50 is 4.19 µM (inactive) with K562; 21.1 µM (inactive) in the test on NCI/ADR-RES; 30 µM (inactive) in the test on A549; 4.34 µM (inactive) in the test on MCF7; 13.7 µM (inactive) in the test on M14; 60 µM (inactive) in the test on SK-OV-3. For the same molecule, the GI50 in the test with 786-0 is 5.87 µM (inactive); with NCI-H226, 31.6 µM (inactive); in the test on MOLT-4, 5.87 µM (inactive); with RPMI-8226, 14.6 µM (inactive); in the test with EKVX, 14 µM (inactive); in the test on SK-MEL-5, 18 µM (inactive). Besides, the GI50 in the test with RXF 393 is 14 µM (inactive); in the test with HOP-62, 51.1 µM (inactive).

For the molecule `CCCC(=O)NC(NC1CCCCC1)(C(=O)OCC)C(F)(F)F` (stereo not given), the GI50 in the test on OVCAR-5, in the test on KM12, in the test with SNB-19, with OVCAR-3, in the test on U-251 and in the test with SF-539 was > 100 µM (inactive) throughout. Besides, the GI50 with K562, with NCI/ADR-RES, with A549, in the test on MCF7, with M14 and with SK-OV-3 was > 100 µM (inactive) throughout. Further, the GI50 in the test with 786-0, in the test on NCI-H226, with MOLT-4, in the test on RPMI-8226, in the test with EKVX and in the test with SK-MEL-5 was > 100 µM (inactive) each time. In addition, the GI50 in the test on RXF 393 and in the test with HOP-62 was > 100 µM (inactive) throughout.

With `Cc1ccc(S(=O)(=O)NC(=O)Nc2cc(Cl)c(S(N)(=O)=O)cc2S(N)(=O)=O)cc1`, the GI50 in the test with OVCAR-5 was > 100 µM (inactive); in the test on KM12, > 100 µM (inactive); in the test on SNB-19, > 100 µM (inactive); with OVCAR-3, > 100 µM (inactive); in the test with U-251, > 100 µM (inactive); in the test on SF-539 it was 58.3 µM (inactive). In addition, the GI50 in the test on K562, with NCI/ADR-RES, in the test with A549, with MCF7, with M14 and in the test with SK-OV-3 was > 100 µM (inactive) each time. The GI50 in the test on 786-0, in the test on NCI-H226, with MOLT-4, in the test with RPMI-8226, in the test with EKVX and in the test with SK-MEL-5 was > 100 µM (inactive) each time. The GI50 with RXF 393 and with HOP-62 was > 100 µM (inactive) each time.

`O=C1c2ccccc2C(=O)c2sc(Nc3cc(Cl)ccc3Cl)nc21`: the GI50 with OVCAR-5 was 20.9 µM (inactive); in the test on KM12 it was 12.2 µM (inactive); in the test with SNB-19, 14.3 µM (inactive); with OVCAR-3, 0.74 µM (active); with U-251 it was 6.56 µM (inactive); with SF-539 it was 3.16 µM (inactive). In addition, the GI50 is 2.99 µM (inactive) with K562; 2.63 µM (inactive) in the test on NCI/ADR-RES; 16.4 µM (inactive) with A549; 1.7 µM (inactive) in the test with MCF7; 4.69 µM (inactive) in the test with M14; 16 µM (inactive) in the test with SK-OV-3. For the same molecule, the GI50 was 3.61 µM (inactive) in the test with 786-0; 17.6 µM (inactive) in the test on NCI-H226; 2.52 µM (inactive) in the test with MOLT-4; 3.22 µM (inactive) in the test on RPMI-8226; 12.9 µM (inactive) in the test on EKVX; 1.53 µM (inactive) in the test on SK-MEL-5. Moreover, the GI50 in the test with RXF 393 is 14.3 µM (inactive); in the test with HOP-62 it was 15 µM (inactive).

For the molecule `CC(C)C(NC(=O)C(Cc1ccccc1)NC(=O)[C@H]1CCC[C@H]1NC(=O)C(N)Cc1ccc(O)cc1)C(N)=O` (stereo not given in full), the GI50 in the test on OVCAR-5, in the test with KM12, in the test with SNB-19, in the test on OVCAR-3, in the test with U-251 and in the test with SF-539 was > 100 µM (inactive) each time. Besides, the GI50 in the test on K562, in the test with NCI/ADR-RES, in the test with A549, with MCF7, in the test on M14 and with SK-OV-3 was > 100 µM (inactive) each time. The GI50 with 786-0 is > 100 µM (inactive); with NCI-H226, > 100 µM (inactive); in the test with MOLT-4, > 100 µM (inactive); in the test with RPMI-8226 it was > 100 µM (inactive); in the test on EKVX it was > 100 µM (inactive); with SK-MEL-5, 17.8 µM (inactive). For the same molecule, the GI50 with RXF 393 and in the test with HOP-62 was > 100 µM (inactive) each time.

`COc1ccc(-c2c(C#N)c(=O)nc(SC)n2C2OCC(OC(C)=O)C(OC(C)=O)C2OC(C)=O)cc1` (stereo not given): the GI50 is > 100 µM (inactive) with OVCAR-5; > 100 µM (inactive) in the test on KM12; 91.8 µM (inactive) in the test on SNB-19; > 100 µM (inactive) in the test on OVCAR-3; 57.8 µM (inactive) in the test on U-251; > 100 µM (inactive) in the test on SF-539. For the same molecule, the GI50 with K562 was 18.1 µM (inactive); in the test on NCI/ADR-RES, 91.2 µM (inactive); in the test with A549 it was 82.4 µM (inactive); in the test with MCF7, > 100 µM (inactive); in the test with M14, > 100 µM (inactive); with SK-OV-3, > 100 µM (inactive). Besides, the GI50 with 786-0 was > 100 µM (inactive); with NCI-H226, > 100 µM (inactive); in the test on MOLT-4, 21.3 µM (inactive); with RPMI-8226, 37.7 µM (inactive); in the test with EKVX, 87.5 µM (inactive); in the test with SK-MEL-5, 45 µM (inactive). The GI50 with RXF 393 and with HOP-62 was > 100 µM (inactive) throughout.

Take `NC(=S)N1N=C(c2ccc3c(c2)CCC3)CC1c1ccccc1` (stereo not given): the GI50 is 32.2 µM (inactive) in the test with OVCAR-5; 11.4 µM (inactive) with KM12; 34.6 µM (inactive) in the test on SNB-19; 17.4 µM (inactive) in the test with OVCAR-3; 20.4 µM (inactive) in the test with U-251; 18.3 µM (inactive) with SF-539. Moreover, the GI50 is 13.1 µM (inactive) in the test with K562; 15.6 µM (inactive) in the test on NCI/ADR-RES; 23.4 µM (inactive) in the test on A549; 8.45 µM (inactive) with MCF7; 26.7 µM (inactive) in the test with M14; 28.6 µM (inactive) with SK-OV-3. In addition, the GI50 with 786-0 is 22.6 µM (inactive); in the test with NCI-H226 it was 34.2 µM (inactive); in the test on MOLT-4 it was 8.15 µM (inactive); in the test with RPMI-8226, 13.6 µM (inactive); with EKVX it was 5.08 µM (inactive); with SK-MEL-5, 12.8 µM (inactive). Also, the results for the GI50 with RXF 393 and with HOP-62 were 2.88 µM (inactive) and 24.9 µM (inactive), respectively.

For `C[C@H]1CC[C@@H]2[C@@H](C)[C@H]3[C@H](C[C@H]4[C@@H]5CC=C6C[C@@H](O)CC[C@]6(C)[C@H]5C[C@H](O)[C@]34C)N2C1`, the GI50 in the test with OVCAR-5, with KM12, with SNB-19, in the test on OVCAR-3, with U-251 and with SF-539 was > 100 µM (inactive) in each case. Moreover, the GI50 with K562, in the test on NCI/ADR-RES, with A549, with MCF7, in the test on M14 and in the test with SK-OV-3 was > 100 µM (inactive) throughout. The GI50 with 786-0, in the test on NCI-H226, with MOLT-4, with RPMI-8226, with EKVX and in the test on SK-MEL-5 was > 100 µM (inactive) throughout. In addition, the GI50 with RXF 393 and in the test with HOP-62 was > 100 µM (inactive) each time.
